The text below walks through data of patent US10179775B2, “Cyclooctenes for bioorthogonol reactions” (The General Hospital Corporation, priority 2014, dated 2019).

Common to all, as to assay type: physicochemical
Data set [1] is described as follows: Tetrazine kinetics with cyclooctenes (stopped-flow spectrophotometry). The conditions noted are these: for k2 second rate constant / second order rate constant k2: reaction with benzylamino tetrazine in PBS at 37° C. The method, then: Kinetic measurements were performed with benzylamino tetrazine and excessive amounts of cyclooctenes, using an Applied Photophysics Stopped-Flow spectrophotometer. Stock solutions of reactants in DMSO were diluted in PBS pH 7.4 to a final concentration of 1 vol % DMSO. Solutions of these reactants were loaded into the individual chambers of the instrument and equilibrated to 37° C. for 10 min. The concentration of benzylamino tetrazine after the samples were mixed by the spectrometer in a 1:1 v/v ratio was 50, 75 or 150 μM depending on the cyclooctene used. The decrease of the benzylamino tetrazine absorbance measured at 515 nm was monitored at regular intervals between 0.075 s and 10 s depending on the cyclooctene used. For trials shorter than […] (TCO-OH, OX-TCO and 3PEGMe-TCO) 1000 data points were collected and for trials longer than 1 s (EG-TCO and DO-TCO) 10000 data points were collected.
The kobs, (s^−1) values were calculated using the Prism 6 software package and the results of 6 runs were averaged for each cyclooctene concentration. […] The average kobs, values were then plotted against the concentration of cyclooctenes to yield the second order rate constant k2=(dm^3 mol^−1 s^−1) from the slope of the line with the error from the standard deviation in the slope calculated in Prism 6.

The nature of data set [2]: Chemical stability in the presence of mercaptoethanol by 1H NMR. Set-up: Icis / Itrans: unit not given here. The conditions noted are these: for Icis / Itrans / Itrans/(Icis + Itrans) / chemical stability (change by NMR) after 16 hours: mercaptoethanol; for Icis / Itrans / Itrans/(Icis + Itrans) / chemical stability / isomerization, result in words: 37° C.; for chemical stability / isomerization, result in words: 48 mM mercaptoethanol, 20 mM cyclooctene (s-TCO 10 mM), D2O:DMSO-d6 10:1 v/v, 0-25 h; for chemical stability (change by NMR) after 16 hours: D2O:DMSO-d6 10:1 v/v at 37° C. The method, then:
(§1) The chemical stability of the compounds of Examples 1-3 was also investigated in the presence of thiols (cysteine and mercaptoethanol) by NMR in D2O:DMSO-d6 10:1 v/v at 37° C.
(§2) The solutions were prepared by the dilution of a stock solution prepared in DMSO-d6. An end concentration of 20 mM of the cyclooctenes was used except for the s-TCO, which was used in 10 mM end concentration due to poorer solubility. A 20 mM solution could not be prepared by dilution with D2O from DMSO-d6 stock solution without the precipitation of s-TCO. Nucleophiles mercaptoethanol and cysteine were used in 48 mM end concentration. Cysteine precipitated very soon from the solution. In all cases reactions were followed by ^1H NMR.
Measurements were taken in the following intervals: mercaptoethanol: 0 h, 2 h, 11 h, 17 h and 25 h; cysteine: 0 h, 6 h and 14 h; s-TCO without nucleophile at room temperature: 1 h, 7 h and 14 h. […]

A short description of data set [3]: Chemical stability in the presence of cysteine by 1H NMR. As to conditions: 37° C.; for chemical stability / isomerization, result in words: 48 mM cysteine, 20 mM cyclooctene (s-TCO 10 mM), D2O:DMSO-d6 10:1 v/v, 0-14 h. The method, then:
as §1, §2
(§3) Measurements were taken in the following intervals: mercaptoethanol: 0 h, 2 h, 11 h, 17 h and 25 h; cysteine: 0 h, 6 h and 14 h; s-TCO without nucleophile at room temperature: 1 h, 7 h and 14 h.
(§4) In each case the ratio of the integrals of the cis-double bond to the sum of the integrals of the cis- and trans-double bonds was calculate.

The nature of data set [4]: Spontaneous isomerization in D2O or D2O:DMSO-d6 without nucleophile by 1H NMR. The conditions noted are these: for isomerization or degradation on storage in D2O, result in words: stored in D2O, 1H NMR. The method, then:
Bulk samples of the compounds described above in Examples 1-3 were stored at −20° C. for six months. […] The spontaneous isomerization took almost 5 days at 37° C. and more than 12 days at room temperature. […] With 22, a similar degree of isomerization was observed only after 63 hours at room temperature in D2O.
as §3, §4

Data set [5] is described as follows: Chemical stability in the presence of cysteine by 1H NMR. As to conditions: for Itrans/(Icis + Itrans): 37° C.; for chemical stability (change by NMR) after 16 hours: D2O:DMSO-d6 10:1 v/v at 37° C.

Entries after “also recorded” stand apart in the source; their conditions may differ.

With `OCCOC1/C=C/COCOC1` (stereo not drawn) [DO-TCO, (E)-2-((5,8-dihydro-4H-1,3-dioxocin-5-yl)oxy)ethanol], the “k2 second rate constant” value in data set [1] was 332 ± 3 dm^3 · mol^−1 · s^−1. In addition, the “second order rate constant k2” value in data set [1] was 332±3 dm^3 mol^−1 s^−1. Further, the Icis in data set [2] (t 0 h) is listed as 0; in data set [2] (t 2 h) it was 0.18; in data set [2] (t 11 h), 0.38; in data set [2] (t 17 h), 0.42; in data set [2] (t 25 h), 0.79; in data set [3] (cysteine, t 0 h), 0. Further, the Icis in data set [3] (cysteine, t 6 h) was 2; in data set [3] (cysteine, t 14 h), 2. Also, the Itrans was 2 in data set [2] (t 0 h); 2 in data set [2] (t 2 h); 2 in data set [2] (t 11 h); 2 in data set [2] (t 17 h); 2 in data set [2] (t 25 h); 2 in data set [3] (cysteine, t 0 h). Further, the Itrans in data set [3] (cysteine, t 6 h) is reported as 0; in data set [3] (cysteine, t 14 h), 0. Besides, the “Itrans/(Icis + Itrans)” value is 1 in data set [2] (t 0 h); 0.917 in data set [2] (t 2 h); 0.840 in data set [2] (t 11 h); 0.826 in data set [2] (t 17 h); 0.717 in data set [2] (t 25 h); 1 in data set [5] (t 0 h). Moreover, the “Itrans/(Icis + Itrans)” value in data set [5] (t 6 h) and in data set [5] (t 14 h) was 0 throughout. In data set [3], the “chemical stability / isomerization, result in words” value (“chemical stability / isomerization” for short) was “isomerization of the trans isomer to the cis isomer; also recorded: isomerization of the trans-isomer to the cis-isomer; also recorded: undergo isomerization/decomposition; also recorded: much faster than that of s-TCO”. Also, the “trans-isomer still present after 6 hours” value in data set [3] (cysteine, 6 hours) is “no trans-compound was present”. Besides, the “time the spontaneous isomerization to the cis isomer took” value in data set [4] (D2O, 37° C.) was around 5 days; in data set [4] (D2O, room temperature), “more than 12 days”. Also, the “time after which a similar degree of isomerization (at least 5%) was observed” value in data set [4] (D2O, room temperature) is 63 h. Besides, in data set [4], the “isomerization or degradation on storage in D2O, result in words” value (shortened to “isomerization or degradation on storage”) is “slow isomerization to the cis isomer”.
As to `OCCOC1/C=C/CCCCC1` (stereo not drawn) [EG-TCO, (E)-2-(cyclooct-2-en-1-yloxy)ethanol], in data set [1], the “k2 second rate constant” value was determined as 600 ± 6 dm^3 · mol^−1 · s^−1 and the “second order rate constant k2” value is given as 600±6 dm^3 mol^−1 s^−1. In addition, in data set [2], the “chemical stability / isomerization” value is given as “did not show any change; also recorded: relatively stable” and the “chemical stability (change by NMR) after 16 hours” value (“chemical stability (change by NMR)” below) was “did not show any change”. In addition, in data set [3], the “chemical stability / isomerization” value is given as “did not show any change; also recorded: relatively stable”. In addition, the “chemical stability (change by NMR)” value in data set [5] is listed as “did not show any change”.
For `O=C1OC2CC/C=C/CCC2N1CCOCCO` (stereo not drawn) [OX-TCO, (E)-3-(2-(2-hydroxyethoxy)ethyl)-3,3a,4,5,9,9a-hexahydrocycloocta[d]oxazol-2(8H)-one], the “weighted average second order rate constant k2” value in data set [1] (4:1 isomer mixture, benzylamino tetrazine in PBS at 37° C.) was 29242±636 dm^3 mol^−1 s^−1. The “k2 second rate constant” value in data set [1] stood at 29242 ± 636 dm^3 · mol^−1 · s^−1. Besides, the “chemical stability / isomerization” value in data set [2] and in data set [3] was “did not show any change; also recorded: relatively stable” throughout. Besides, the “chemical stability (change by NMR)” value in data set [2] and in data set [5] was “did not show any change” throughout. The “isomerization or degradation on storage” value in data set [4] is reported as “no isomerization or degradation”.
On to `COCCOCCOCCOC1CC/C=C/CCC1O` (stereo not drawn) [3PEGMe-TCO, (E)-8-(2-(2-(2-methoxyethoxy)ethoxy)ethoxy)cyclooct-4-enol], for which the Icis in data set [2] (t 0 h) came out at 0.17; in data set [2] (t 2 h), 0.48; in data set [2] (t 11 h) it was 0.66; in data set [2] (t 17 h), 0.69; in data set [2] (t 25 h) it was 0.74. For the same compound, the Itrans in data set [2] (t 0 h), in data set [2] (t 2 h), in data set [2] (t 11 h), in data set [2] (t 17 h) and in data set [2] (t 25 h) was 2 each time. The “Itrans/(Icis + Itrans)” value in data set [2] (t 0 h) came to 0.922; in data set [2] (t 2 h), 0.807; in data set [2] (t 11 h), 0.752; in data set [2] (t 17 h) it was 0.744; in data set [2] (t 25 h) it was 0.730. Also, in data set [3], the “chemical stability / isomerization” value is listed as “did not show any degradation; also recorded: relatively stable”. In addition, in data set [4], the “isomerization or degradation on storage” value was “no isomerization or degradation”.
In the case of `OC1CC/C=C/CCC1` (stereo not drawn) [TCO-OH, trans-cyclooctenol, reference compound], the “k2 second rate constant” value in data set [1] is on record as 33585 ± 326 dm^3 · mol^−1 · s^−1. For the same compound, the “chemical stability / isomerization” value in data set [2] is on record as “did not show any change; also recorded: relatively stable”; in data set [2] (listed as TCO), “isomerized very fast”; in data set [3], “did not show any change; also recorded: relatively stable”. The “chemical stability (change by NMR)” value in data set [2] and in data set [5] was “did not show any change” each time. Besides, the “isomerization or degradation on storage” value in data set [4] is recorded as “no isomerization or degradation”.
